Test system: amyloid-beta in CD31-positive vessels
Assay: Assessment of CAA in APP23 mice by CD31/NT12 double fluorescence immunohistochemistry and image analysis
Type: in vivo, mouse
Protocol: Amyloid plaques were stained using a rabbit anti-Aβ primary antibody (NT12) which recognizes the C-terminal part of the amyloid peptide (the antibody was raised as described in Schrader-Fischer G and Paganetti P A, 1996, and Schrader-Fischer G et al., 1997). The vascular endothelial cells were detected using a rat anti-CD31 antibody (reference DIA310) from Dianova GmbH (Hamburg, Germany). All stainings were performed using the fully automated instrument Ventana Discovery® Ultra (Roche Diagnostics Schweiz AG, Rotkreuz, Switzerland). All chemicals were provided by Roche Diagnostic.
All study animals were used and brain tissue sections of 3 micrometers were freshly cut and collected on SuperFrost+ slides. The tissues sections were de-paraffinized and rehydrated under solvent-free conditions (EZprep solution) followed by antigen retrieval (demasking) performed by heat retrieval cycles for 32 min in a EDTA based buffer (CC1 solution). Subsequently, slides were blocked for 4 min using the DISCOVERY Inhibitor (reference 07017944001 (Roche)). The primary antibody diluted at 1/10′000 in antibody diluent was manually added on tissue sections and incubated for 1 h at room temperature. A short post-fixation (glutaraldehyde at 0.05%) was performed before applying the multimer UltraMap-anti Rabbit HRP ready to use antibody (reference 05269717001) for 16 min.
Detection was performed using the DISCOVERY FITC® following the manufacturer's recommendations. Slides were then heat denaturated at 92° C. for 20 min before a manual application of the second primary antibody (rat anti-CD31 diluted at 1/1′000 in antibody diluent) and incubated for 1 h. Multimer UltraMap-anti-Rat HRP antibody (reference 05891884001) was used for 20 min to detect CD31 in combination with the DISCOVERY Rhodamine kit (reference 07259883001).
The slides were washed and mounted using Prolong® Gold antifade reagent (reference P36931, ThermoFisher, Switzerland) and further scanned with the Hamamatsu slide scanner instrument (NanoZoomer 2.0 HT, scanning software NDP-Scan Vers. 2.5, Hamamatsu Photonics France, Swiss Office, Solothurn, Switzerland) at the 40× objective. The scanning settings were as follows: the exposure time with the DAPI filter was set at 28.5 ms as well as for the FITC filter and TRITC filter (detection of Rhodamine).
For the quantitative plaque and vessel-associated amyloid-beta evaluation based on image analysis, a proprietary image analysis platform (ASTORIA, Automated Stored Image Analysis) was developed based on MS Visual Studio 2010 and many functions from Matrox MIL V9 libraries (Matrox Inc, Quebec, Canada).
For the beta-amyloid plaque and vessel analysis, the following sequence of steps was performed: • Slides were scanned with Hamamatsu Nanozoomer at 40× magnification. […]

[1] = 0.3 g/kg food, 6 months, all CD31+ vessels
[2] = 0.3 g/kg food, 6 months, large CD31-positive vessels
[3] = 0.3 g/kg vs vehicle, all CD31+ vessels
[4] = 0.3 g/kg vs vehicle, large vessels
[5] = 0.3 g/kg vs vehicle, small + medium vessels

In the case of `C[C@@]1(c2nc(NC(=O)c3ncc(C(F)(F)F)cc3Cl)ccc2F)CO[C@@](C)(C(F)(F)F)C(N)=N1` [Compound 1, N-(6-((3R,6R)-5-amino-3,6-dimethyl-6-(trifluoromethyl)-3,6-dihydro-2H-1,4-oxazin-3-yl)-5-fluoropyridin-2-yl)-3-chloro-5-(trifluoromethyl)picolinamide], the “% of large vessels with 0% Aβ” value (0.3 g/kg food, 6 months) is reported as 10.3 ± 1.56%, the “% of large vessels with 1-10% Aβ” value (0.3 g/kg food, 6 months) is reported as 21.6 ± 2.31% and the “% of large vessels with 10-25% Aβ” value (0.3 g/kg food, 6 months) is reported as 9.48 ± 1.85%. The “% of large vessels with 25-50% Aβ” value (0.3 g/kg food, 6 months) was 20.6 ± 3.66%, the “% of large vessels with 50-75% Aβ” value (0.3 g/kg food, 6 months) was 28.8 ± 3.3% and the “% of large vessels with >10% Aβ” value (0.3 g/kg food, 6 months) was 68.1 ± 3.03%. The “% of large vessels with >75% Aβ” value (0.3 g/kg food, 6 months) was 9.27 ± 2.77%, the “% of small + medium vessels with 0% Aβ” value (0.3 g/kg food, 6 months) was 80.2 ± 1.61% and the “% of small + medium vessels with 1-10% Aβ” value (0.3 g/kg food, 6 months) was 10.8 ± 1.12%. For the same compound, the “% of small + medium vessels with 10-25% Aβ” value (0.3 g/kg food, 6 months) was 2.75 ± 0.20%, the “% of small + medium vessels with 25-50% Aβ” value (0.3 g/kg food, 6 months) was 2.38 ± 0.25% and the “% of small + medium vessels with 50-75% Aβ” value (0.3 g/kg food, 6 months) was 1.73 ± 0.21%. For the same compound, the “% of small + medium vessels with >10% Aβ” value (0.3 g/kg food, 6 months) was 8.95 ± 0.8%, the “% of small + medium vessels with >75% Aβ” value (0.3 g/kg food, 6 months) was 2.07 ± 0.33% and the “CAA Frequency (number small + medium vessels with >10% Aβ normalized to sample area, *10^7)” value (0.3 g/kg food, 6 months) was 56 ± 6.1. For the same compound, the “Number of large CD31+ vessels (normalized to total CD31 positive vessel numbers in %)” value (0.3 g/kg food, 6 months) was 1.49 ± 0.12%, the “Number of small + medium CD31+ vessels (normalized to total CD31 positive small + medium vessel numbers in %)” value (0.3 g/kg food, 6 months) was 98.5 ± 0.12% and the “Number small + medium vessels with >10% Aβ, mean ± SEM” value (0.3 g/kg food, 6 months) was 195 ± 21.9. The “Total number CD31+ vessels (normalized to total sample area, *10^5), mean ± SEM” value (0.3 g/kg food, 6 months) was 6.46 ± 0.37, the “Total vessel-associated NT12 area (normalized to total small + medium CD31+ vessel area)” value (0.3 g/kg food, 6 months) was 0.194 ± 0.0201 and the “% of vessels with 0% Aβ” value [1] was 79.2 ± 1.63%. The “% of vessels with 1-10% Aβ” value [1] was 11 ± 1.1%, the “% of vessels with 10-25% Aβ” value [1] was 2.87 ± 0.21% and the “% of vessels with 25-50% Aβ” value [1] was 2.65 ± 0.25%. The “% of vessels with 50-75% Aβ” value [1] was 2.12 ± 0.24%, the “% of vessels with >10% Aβ” value [1] was 9.82 ± 0.85% and the “% of vessels with >75% Aβ” value [1] was 2.19 ± 0.36%. For the same compound, the “CAA Frequency (number vessels with >10% Aβ normalized to sample area, *10^7)” value [1] was 70 ± 7.6, the “Number vessels with >10% Aβ, mean ± SEM” value [1] was 217 ± 23.6 and the “Total vessel-associated NT12 area (normalized to total CD31+ area)” value [1] was 0.47 ± 0.04. The “CAA Frequency (number vessels with >10% Aβ normalized to sample area, *10^7)” value [2] was 6.5 ± 0.6, the “Number vessels with >10% Aβ, mean ± SEM” value [2] was 22 ± 2.2 and the “Total vessel-associated NT12 area (normalized to total CD31+ area)” value [2] was 0.77 ± 0.04. The “% of large vessels with 0% Aβ, treatment effect vs vehicle” value (0.3 g/kg vs vehicle) was −8%, the “% of large vessels with 1-10% Aβ, treatment effect vs vehicle” value (0.3 g/kg vs vehicle) was “+48%” and the “% of large vessels with 10-25% Aβ, treatment effect vs vehicle” value (0.3 g/kg vs vehicle) was “+35%”. The “% of large vessels with 25-50% Aβ, treatment effect vs vehicle” value (0.3 g/kg vs vehicle) was “+7%”, the “% of large vessels with 50-75% Aβ, treatment effect vs vehicle” value (0.3 g/kg vs vehicle) was −12% and the “% of large vessels with >10% Aβ, treatment effect vs vehicle” value (0.3 g/kg vs vehicle) was −8%. The “% of large vessels with >75% Aβ, treatment effect vs vehicle” value (0.3 g/kg vs vehicle) was −36%, the “% of small + medium vessels with 0% Aβ, treatment effect vs vehicle” value (0.3 g/kg vs vehicle) was “+9%” and the “% of small + medium vessels with 1-10% Aβ, treatment effect vs vehicle” value (0.3 g/kg vs vehicle) was −15%. The “% of small + medium vessels with 10-25% Aβ, treatment effect vs vehicle” value (0.3 g/kg vs vehicle) was −35%, the “% of small + medium vessels with 25-50% Aβ, treatment effect vs vehicle” value (0.3 g/kg vs vehicle) was −39% and the “% of small + medium vessels with 50-75% Aβ, treatment effect vs vehicle” value (0.3 g/kg vs vehicle) was −35%. The “% of small + medium vessels with >10% Aβ, treatment effect vs vehicle” value (0.3 g/kg vs vehicle) was −36%, the “% of small + medium vessels with >75% Aβ, treatment effect vs vehicle” value (0.3 g/kg vs vehicle) was −34% and the “Total small + medium vessel-associated NT12 area (normalized to total CD31+ small + medium vessel area), treatment effect vs vehicle” value (0.3 g/kg vs vehicle) was −28% p < 0.05. For the same compound, the “% of vessels with 0% Aβ, treatment effect vs vehicle” value [3] was “+9%”, the “% of vessels with 1-10% Aβ, treatment effect vs vehicle” value [3] was −13% and the “% of vessels with 10-25% Aβ, treatment effect vs vehicle” value [3] was −32%. The “% of vessels with 25-50% Aβ, treatment effect vs vehicle” value [3] was 36%, the “% of vessels with 50-75% Aβ, treatment effect vs vehicle” value [3] was −33% and the “% of vessels with >10% Aβ, treatment effect vs vehicle” value [3] was −34%. For the same compound, the “% of vessels with >75% Aβ, treatment effect vs vehicle” value [3] was −34%, the “CAA Frequency, treatment effect vs vehicle” value (shortened to “CAA Frequency … vs vehicle”) [3] was −29% p < 0.05 and the “Number vessels with >10% Aβ, treatment effect vs vehicle” value [3] was −39% p < 0.001. The “Total vessel-associated NT12 area (normalized to total CD31+ area), treatment effect vs vehicle” value [3] was −19% n.s, the “CAA Frequency … vs vehicle” value [4] was −17% n.s and the “Number vessels with >10% Aβ, treatment effect vs vehicle” value [4] was −21% n.s. For the same compound, the “Total vessel-associated NT12 area (normalized to total CD31+ area), treatment effect vs vehicle” value [4] was −4% n.s, the “CAA Frequency … vs vehicle” value [5] was −37% p < 0.005 and the “Number vessels with >10% Aβ, treatment effect vs vehicle” value [5] was −40% p < 0.001.

From patent US10722518B2, “Oxazine derivative for use in the treatment or prevention of cerebral amyloid angiopathy” (Novartis AG, priority 2016, dated 2020)
